# What was measured:
# TGF-beta activity = TGF-beta activity by effect on SMC proliferation (CPD) with and without neutralising anti-TGF-beta antibody; assay type: cell-based, human; details: 0 μM T, 72 hrs
# Method: (1995) Cardiovasc. Res. 29:848-55). […] The cells were then incubated for either 24 hrs or 72 hrs depending on the experiment. All treatment conditions were established in triplicate. Finally, TGF-beta activity was estimated by the direct effects on smooth muscle cell proliferation within the assay. For these experiments, the test agents were added, in triplicate, to cells both in the presence and absence of a neutralising antibody to TGF-beta (AB-100-NA; […] R&D Systems). After 72 hrs incubation, the cells are washed and then released completely using 0.02% trypsin/EDTA (Gibco) at 37° C. for 10 mins, then counted manually using a haemocytometer. Importantly, the number of cells at 0 hrs must also be determined (using the same counting method, on a replicate set of three wells plated out specifically for the purpose). For each treatment condition, the TGF-beta-dependent inhibition of proliferation is expressed as the fold increase in the cumulative population doubling time in the absence of the neutralising antibody compared to the cumulative population doubling time in the presence of the neutralising antibody. […] Failure of either control led to the repeat of the experiment.
# [1] = Tamoxifen treatment; cited from earlier work
# [2] = tested on: anti-carbohydrate antibodies; test: anti-carbohydrate antibody isotype profile in serum of men with coronary artery disease, direct ELISA; assay type: in vivo, human; details: 3 months
# Method: Blood samples were also taken at baseline, immediately prior to beginning the drug treatments, and also after 90 days. The blood was drawn from the antecubital fossa using 19-gauge butterfly needles, and dispensed into polypropylene tubes, where it was allowed to clot for between 2 and 3 hours at room temperature. The clot was released, and the sample spun (450×g; 4 mins), and the serum supernatant removed, aliquoted and stored frozen at −80° C. until analysed.
# The level of anti-carbohydrate antibodies was measured by direct ELISA as previously described (Mosedale et al (2006) J. Immunol. Meth. 309:182-91). Briefly, Maxisop 96-well plates were coated with BSA-alpha-Gal (Glycorex) at 1 μg/well in 200 μl of Sodium Carbonate pH9.0 overnight at 4° C. After three quick washes with PBS, non-specific binding was blocked using 3% BSA in PBS at room temperature for 1 hour. After three further washes the serum was added at various dilutions ranging from neat to 1:100 dilution in PBS, then incubated for 2 hours at room temperature with shaking. The serum was then discarded, the plate washed 5 further times with PBS+0.1% Tween-20, and replicate strips (each containing a full range of dilutions of the same serum sample) were exposed to highly specific monoclonal antibodies to each isotype, including IgG1, IgG2, IgG3, IgG4, IgM, IgA, IgE and IgD, at 1 μg/ml in blocking buffer. After a further hour at room temperature with shaking, the antibody was discarded and the plate washed 3 further times with PBS/Tween, before being exposed to donkey anti-mouse IgG minimum cross reactivity, coupled to horseradish peroxidase (Jackson Immunoresearch), at 1 μg/ml in blocking buffer for a further 1 hour at room temperature with shaking. After a final 3 washes in PBS/Tween and single wash in PBS, 200 μl of K-blue chromogenic substrate was added to each well. After a carefully controlled period, accurate to 5 seconds, equal for all wells, the reaction was stopped by the addition of 50 μl 2M HCl and the colour read at 450 nm. Results are reported for each isotype as the mean titre (that is, the dilution of serum which yielded 50% of the maximal signal) as well as the mean signal at that titre (since the maximum absorbance in many cases was considerably below full scale deflection).
# Blood samples were also taken at baseline, immediately prior to beginning the drug treatments, and also after 90 days, and serum prepared exactly as in Example 5. The level of anti-carbohydrate antibodies was then measured by direct ELISA using the procedure given in Example 5.
# [3] = tested on: human aortic vascular smooth muscle cells; test: toxicity to cultured smooth muscle cells; assay type: cell-based
# Method: The cells were cultured (37° C.; 5% CO2) in DMEM+20% foetal calf serum (FCS), and subcultured every 5 days at 1:2 dilution, using 0.02% trypsin/EDTA (Gibco).
# For the experiments, the cells were subcultured into 12-well cluster plates at 1×10^5 cells/cm^2, and allowed to grow for 24 hrs. […] The cells were then incubated for either 24 hrs or 72 hrs depending on the experiment. All treatment conditions were established in triplicate.
# [4] = Tamoxifen 20 mg once daily, aspirin 75 mg once daily, mean ± SD
# [5] = neat serum, Tamoxifen 20 mg once daily, aspirin 75 mg once daily, mean ± SD
compound,measurement,setting,value
"CC(=O)Oc1ccccc1C(=O)O [Aspirin, acetylsalicylic acid]",TGF-beta activity: ratio of CPD in the absence and presence of neutralising anti-TGF-beta antibody,TGF-beta activity; 10 μM A,1.05 ± 0.09 fold
same,TGF-beta activity: ratio of CPD in the absence and presence of neutralising anti-TGF-beta antibody,TGF-beta activity; 33 μM A,1.13 ± 0.17 fold
same,TGF-beta activity: ratio of CPD in the absence and presence of neutralising anti-TGF-beta antibody,TGF-beta activity; 100 μM A,1.25 fold
same,TGF-beta activity: ratio of CPD in the absence and presence of neutralising anti-TGF-beta antibody,"TGF-beta activity; 100 μM A, listed as A",1.25 ± 0.06 fold
CC/C(=C(\c1ccccc1)c1ccc(OCCN(C)C)cc1)c1ccccc1 [Tamoxifen],"endothelial function, a surrogate marker of atherosclerotic disease burden",[1],improved endothelial function
same,"IgA titre, change versus baseline",[2]; [4],+14% ± 52%
same,"IgD titre, change versus baseline",[2]; [4],−234% ± 113%
same,"IgG2 titre, change versus baseline",[2]; [4],+176% ± 43%
same,"IgM titre, change versus baseline",[2]; [4],+16% ± 28%
same,absorbance of the IgA class anti-carbohydrate antibodies (in words),[2]; Example 6,statistically significantly increased
same,titre of IgD class anti-carbohydrate antibodies (in words),[2]; Example 6,statistically significantly reduced
same,titre of the IgG2 class anti-carbohydrate antibodies (in words),[2]; Example 6,statistically significantly increased
same,"IgA Absorbance, change versus baseline",[2]; [5],0.31 ± 0.17
same,"IgD Absorbance, change versus baseline",[2]; [5],−0.82 ± 0.51
same,"IgG2 Absorbance, change versus baseline",[2]; [5],+0.61 ± 0.17
same,"IgM Absorbance, change versus baseline",[2]; [5],−0.29 ± 0.36
same,concentrations toxic to the cells,[3]; after 24 hrs,above 33 μM
same,doses toxic to the cells,[3]; after 72 hrs,above 10 μM
